test: Metabolic stability test (microsomal metabolism test); format: in vitro ADME; conditions: pH 7.4; human-derived liver microsomes, test compound remaining after addition of NADP+ and incubation at 37°C for 30 minutes; read-out: metabolic stability of T/C%
Procedure: (Test Example 3 Metabolic stability test) 100 µL of 100 mM phosphate buffer solution (pH 7.4) containing 3 µM test compound was added to 100 µL of reaction solution containing 100 mM phosphate buffer solution (pH 7.4), 30 mM glucose 6-phosphate, 10 mM MgCl2·6H2O, 3 units/mL glucose 6-phosphate 1-dehydrogenase, and 0.3 to 1.5 mgP/mL human liver microsomes and the mixture was incubated at 37°C for 20 minutes. Then, 70 µL of 100 mM phosphate buffer solution (pH 7.4) containing 3 mM NADP^+ was added and the mixture was incubated at 37°C for 30 minutes to conduct a microsomal metabolism test. The metabolic stability was calculated according to the following formula: T/C (%) = ((concentration of test compound after addition of NADP)^+and incubation for30minutes)/((concentration of test compound before addition of NADP)^+) × 100. [formula] […]

Remaining at 0.5 h, ≥ 50%:
CC[C@@H]1CNC2(CC2)CN1C(=O)[C@@H]1CC[C@@H](C)N1C(=O)C1=C(C(C)C)N2C(=N[C@@](C)(c3ccc(Cl)nc3)[C@H]2c2ccc(Cl)c(F)c2)S1 [Example 59, (6R)-7-[(5R)-1-{[(5R,6S)-5-(4-chloro-3-fluorophenyl)-6-(6-chloropyridin-3-yl)-3-isopropyl-6-methyl-5,6-dihydroimidazo[2,1-b][1,3]thiazol-2-yl]carbonyl}-5-methyl-L-prolyl]-6-ethyl-4,7-diazaspiro[2.5]octane]
CC(C)C1=C(C(=O)N2[C@H](C)CC[C@H]2C(=O)N2CC3(CC3)NC[C@@H]2C)SC2=N[C@@](C)(c3ccc(Cl)nc3)[C@@H](c3ccc(Cl)c(F)c3)N21 [Example 21, (6S)-7-[(5R)-1-{[(5R,6S)-5-(4-chloro-3-fluorophenyl)-6-(6-chloropyridin-3-yl)-3-isopropyl-6-methyl-5,6-dihydroimidazo[2,1-b][1,3]thiazol-2-yl]carbonyl}-5-methyl-L-prolyl]-6-methyl-4,7-diazaspiro[2.5]octane]
CC(C)C1=C(C(=O)N2[C@H](C)CC[C@H]2C(=O)N2C[C@@H](C)N(C)C3(CC3)C2)SC2=N[C@@](C)(c3ccc(Cl)nc3)[C@@H](c3ccc(Cl)c(F)c3)N21 [Example 18, (5R)-7-[(5R)-1-{[(5R,6S)-5-(4-chloro-3-fluorophenyl)-6-(6-chloropyridin-3-yl)-3-isopropyl-6-methyl-5,6-dihydroimidazo[2,1-b][1,3]thiazol-2-yl]carbonyl}-5-methyl-L-prolyl]-4,5-dimethyl-4,7-diazaspiro[2.5]octane]
CC(C)C1=C(C(=O)N2[C@H](C)CC[C@H]2C(=O)N2CCNC3(CC3)C2)SC2=N[C@@](C)(c3ccc(Cl)nc3)[C@@H](c3ccc(Cl)c(F)c3)N21 [Example 11, 7-[(5R)-1-{[(5R,6S)-5-(4-chloro-3-fluorophenyl)-6-(6-chloropyridin-3-yl)-3-isopropyl-6-methyl-5,6-dihydroimidazo[2,1-b] [1,3]thiazol-2-yl]carbonyl}-5-methyl-L-prolyl]-4,7-diazaspiro[2.5]octane]
CC(C)C1=C(C(=O)N2[C@H](C)CC[C@H]2C(=O)N2CCNC3(CC3)C2)SC2=N[C@@](C)(c3ccc(F)cc3)[C@@H](c3ccc(Cl)c(F)c3)N21 [Example 25, 7-[(5R)-1-{[(5R,6S)-5-(4-chloro-3-fluorophenyl)-6-(4-fluorophenyl)-3-isopropyl-6-methyl-5,6-dihydroimidazo[2,1-b][1,3]thiazol-2-yl]carbonyl}-5-methyl-L-prolyl]-4,7-diazaspiro[2.5]octane]
CC(=O)N1CCN(C(=O)[C@@H]2CCC(=O)N2C(=O)C2=C(C(C)C)N3C(=N[C@@](C)(c4ccc(Cl)nc4)[C@H]3c3ccc(Cl)c(F)c3)S2)CC12CC2 [Example 45, (5S)-5-[(4-acetyl-4,7-diazaspiro[2.5]oct-7-yl)carbonyl]-1-{[(5R,6S)-5-(4-chloro-3-fluorophenyl)-6-(6-chloropyridin-3-yl)-3-isopropyl-6-methyl-5,6-dihydroimidazo[2,1-b][1,3]thiazol-2-yl]carbonyl}pyrrolidin-2-one]
CC(C)C1=C(C(=O)N2C[C@@H]3C[C@@H]3[C@H]2C(=O)N2CC3(CC3)NC[C@@H]2C)SC2=N[C@@](C)(c3ccc(Cl)nc3)[C@@H](c3ccc(Cl)c(F)c3)N21 [Example 69, (65)-7-{[(1S,25,5R)-3-{[(5R,65)-5-(4-chloro-3-fluorophenyl)-6-(6-chloropyridin-3-yl)-3-isopropyl-6-methyl-5,6-dihydroimidazo[2,1-b][1,3]thiazol-2-yl]carbonyl}-3-azabicyclo[3.1.0]hex-2-yl]carbonyl}-6-methyl-4,7-diazaspiro[2.5]octane]
CC[C@H]1CNC2(CC2)CN1C(=O)[C@@H]1CCCN1C(=O)C1=C(C(C)C)N2C(=N[C@@](C)(c3ccc(Cl)nc3)[C@H]2c2ccc(Cl)c(F)c2)S1 [Example 61, (6S)-7-(1-{[(5R,6S)-5-(4-chloro-3-fluorophenyl)-6-(6-chloropyridin-3-yl)-3-isopropyl-6-methyl-5,6-dihydroimidazo[2,1-b][1,3]thiazol-2-yl]carbonyl}-L-prolyl)-6-ethyl-4,7-diazaspiro[2.5]octane]
CC(C)C1=C(C(=O)N2[C@H](C)CC[C@H]2C(=O)N2CC3(CC3)N(C)C[C@@H]2C)SC2=N[C@@](C)(c3ccc(Cl)nc3)[C@@H](c3ccc(Cl)c(F)c3)N21 [Example 22, (6S)-7-[(5R)-1-{[(5R,6S)-5-(4-chloro-3-fluorophenyl)-6-(6-chloropyridin-3-yl)-3-isopropyl-6-methyl-5,6-dihydroimidazo[2,1-b][1,3]thiazol-2-yl]carbonyl}-5-methyl-L-prolyl]-4,6-dimethyl-4,7-diazaspiro[2.5]octane]
CC(C)C1=C(C(=O)N2C(=O)CC[C@H]2C(=O)N2CCNC3(CC3)C2)SC2=N[C@@](C)(c3ccc(Cl)cc3)[C@@H](c3ccc(Cl)cc3)N21 [Example 42, (5S)-1-{[(5R,6S)-5,6-bis(4-chlorophenyl)-3-isopropyl-6-methyl-5,6-dihydroimidazo[2,1-b][1,3]thiazol-2-yl]carbonyl}-5-(4,7-diazaspiro[2.5]oct-7-ylcarbonyl)pyrrolidin-2-one]
CC(C)C1=C(C(=O)N2C(=O)CC[C@H]2C(=O)N2CCNC3(CC3)C2)SC2=N[C@@](C)(c3ccc(Cl)nc3)[C@@H](c3ccc(Cl)c(F)c3)N21 [Example 44, (5S)-1-{[(5R,6S)-5-(4-chloro-3-fluorophenyl)-6-(6-chloropyridin-3-yl)-3-isopropyl-6-methyl-5,6-dihydroimidazo[2,1-b][1,3]thiazol-2-yl]carbonyl}-5-(4,7-diazaspiro[2.5]oct-7-ylcarbonyl)pyrrolidin-2-one]
CC(C)C1=C(C(=O)N2[C@H](C)CC[C@H]2C(=O)N2CCN(C)C3(CC3)C2)SC2=N[C@@](C)(c3ccc(Cl)cc3)[C@@H](c3ccc(Cl)c(F)c3)N21 [Example 6, 7-[(5R)-1-{[(5R,6S)-5-(4-chloro-3-fluorophenyl)-6-(4-chlorophenyl)-3-isopropyl-6-methyl-5,6-dihydroimidazo[2,1-b][1,3]thiazol-2-yl]carbonyl}-5-methyl-L-prolyl]-4-methyl-4,7-diazaspiro[2.5]octane]
CC(C)C1=C(C(=O)N2[C@H](C)CC[C@H]2C(=O)N2C[C@H](C)NC3(CC3)C2)SC2=N[C@@](C)(c3ccc(Cl)nc3)[C@@H](c3ccc(Cl)c(F)c3)N21 [Example 19, (5S)-7-[(5R)-1-([(5R,6S)-5-(4-chloro-3-fluorophenyl)-6-(6-chloropyridin-3-yl)-3-isopropyl-6-methyl-5,6-dihydroimidazo[2,1-b][1,3]thiazol-2-yl]carbonyl}-5-methyl-L-prolyl]-5-methyl-4,7-diazaspiro[2.5]octane]
CCN1CCN(C(=O)[C@@H]2CC[C@@H](C)N2C(=O)C2=C(C(C)C)N3C(=N[C@@](C)(c4ccc(Cl)nc4)[C@H]3c3ccc(Cl)c(F)c3)S2)CC12CC2 [Example 14, 7-[(5R)-1-{[(5R,6S)-5-(4-chloro-3-fluorophenyl)-6-(6-chloropyridin-3-yl)-3-isopropyl-6-methyl-5,6-dihydroimidazo[2,1-b][1,3]thiazol-2-yl]carbonyl}-5-methyl-L-prolyl]-4-ethyl-4,7-diazaspiro[2.5]octane]
CC(C)C1=C(C(=O)N2[C@H](C)CC[C@H]2C(=O)N2CCNC3(CC3)C2)SC2=N[C@@](C)(c3ccc(Cl)nc3)[C@@H](c3ccc(F)c(Cl)c3)N21 [Example 26, 7-[(5R)-1-{[(5R,6S)-5-(3-chloro-4-fluorophenyl)-6-(6-chloropyridin-3-yl)-3-isopropyl-6-methyl-5,6-dihydroimidazo[2,1-b][1,3]thiazol-2-yl]carbonyl}-5-methyl-L-prolyl]-4,7-diazaspiro[2.5]octane]
CC(C)C1=C(C(=O)N2[C@H](C)CC[C@H]2C(=O)N2CCNC3(CC3)C2)SC2=N[C@@](C)(c3ccc(Cl)nc3)[C@@H](c3ccc(Cl)cc3)N21 [Example 8, 7-[(5R)-1-{[(5R,6S)-5-(4-chlorophenyl)-6-(6-chloropyridin-3-yl)-3-isopropyl-6-methyl-5,6-dihydroimidazo[2,1-b][1,3]thiazol-2-yl]carbonyl}-5-methyl-L-prolyl]-4,7-diazaspiro[2.5]octane]
CC[C@@H]1CC[C@@H](C(=O)N2CC3(CC3)NC[C@@H]2C)N1C(=O)C1=C(C(C)C)N2C(=N[C@@](C)(c3ccc(Cl)nc3)[C@H]2c2ccc(Cl)c(F)c2)S1 [Example 56, (6S)-7-[(5R)-1-{[(5R,6S)-5-(4-chloro-3-fluorophenyl)-6-(6-chloropyridin-3-yl)-3-isopropyl-6-methyl-5,6-dihydroimidazo[2,1-b][1,3]thiazol-2-yl]carbonyl}-5-ethyl-L-prolyl]-6-methyl-4,7-diazaspiro[2.5]octane]
CC(C)C1=C(C(=O)N2[C@H](C)CC[C@H]2C(=O)N2CCN(C)C3(CC3)C2)SC2=N[C@@](C)(c3ccc(Cl)cc3)[C@@H](c3ccc(Cl)cc3)N21 [Example 2, 7-[(5R)-1-{[(5R,6S)-5,6-bis(4-chlorophenyl)-3-isopropyl-6-methyl-5,6-dihydroimidazo[2,1-b][1,3]thiazol-2-yl]carbonyl}-5-methyl-L-prolyl]-4-methyl-4,7-diazaspiro[2.5]octane]

Source: EP2298778A1, “IMIDAZOTHIAZOLE DERIVATIVE HAVING 4,7-DIAZASPIROÝ2.5¨OCTANE RING STRUCTURE” (Daiichi Sankyo Company, Limited, priority 2008, dated 2009)
